Data reported in ChEMBL document CHEMBL3112536, “Pd-N-heterocyclic carbene catalyzed synthesis of piperidine alkene-alkaloids and their anti-cancer evaluation” (Bioorg Med Chem Lett, 2014).
≈ marks a conversion by molar mass, not a printed value.

Tests used:
Assay type in all cases: functional, cell-based
A549 = test: Cytotoxicity against human A549 cells assessed as growth inhibition after 24 hrs by MTT assay; details: A549, 24 h
OVCAR-3 = test: Cytotoxicity against human OVCAR3 cells assessed as growth inhibition after 24 hrs by MTT assay; details: OVCAR-3, 24 h
MCF7 = test: Cytotoxicity against human MCF7 cells assessed as growth inhibition after 24 hrs by MTT assay; details: MCF7, 24 h

Compound | IC50 (A549) [µg/mL] | IC50 (OVCAR-3) [µg/mL] | IC50 (MCF7) [µg/mL]
CN1CCCC[C@H]1/C=C/c1ccc(O)cc1 | 3.45 (≈ 15.9 µM) | 1.94 (≈ 8.93 µM) | 1.51 (≈ 6.95 µM)
C(=C\[C@@H]1CCCCN1)/c1ccccc1 | 9.99 (≈ 53.3 µM) | 10.5 (≈ 55.9 µM) | 9.15 (≈ 48.9 µM)
Cc1ccc(/C=C/[C@@H]2CCCCN2)cc1 | 8.56 (≈ 42.5 µM) | 8.48 (≈ 42.1 µM) | 5.35 (≈ 26.6 µM)
COc1ccc(/C=C/[C@@H]2CCCCN2)cc1 | 4.33 (≈ 19.9 µM) | 3.31 (≈ 15.2 µM) | 3.57 (≈ 16.4 µM)
COc1ccccc1/C=C/[C@@H]1CCCCN1 | 4.94 (≈ 22.7 µM) | 4.78 (≈ 22 µM) | 3.81 (≈ 17.5 µM)
Cc1cccc(C)c1/C=C/[C@@H]1CCCCN1 | 7.28 (≈ 33.8 µM) | 6.27 (≈ 29.1 µM) | 4.29 (≈ 19.9 µM)
CCc1ccc(/C=C/[C@@H]2CCCCN2)cc1 | 5.94 (≈ 27.6 µM) | 5.07 (≈ 23.5 µM) | 4.13 (≈ 19.2 µM)
O=[N+]([O-])c1ccc(/C=C/[C@@H]2CCCCN2)cc1 | 3.27 (≈ 14.1 µM) | 1.02 (≈ 4.39 µM) | 2.15 (≈ 9.26 µM)
CC(=O)c1ccc(/C=C/[C@@H]2CCCCN2)cc1 | 3.69 (≈ 16.1 µM) | 2.18 (≈ 9.51 µM) | 2.7 (≈ 11.8 µM)
FC(F)(F)c1ccc(/C=C/[C@@H]2CCCCN2)cc1 | 2.82 (≈ 11 µM) | 0.99 (≈ 3.88 µM) | 1.25 (≈ 4.9 µM)
